{"source": "PubChem BioAssay (NCI)", "experiment_in_all_cases": "NCI tumour cell line growth inhibition, 48 h", "key": {"786-0 renal": {"tested_on": "786-0 renal"}, "A498 renal": {"tested_on": "A498 renal"}, "A549 NSCLC": {"tested_on": "A549 NSCLC"}, "BT-549 breast": {"tested_on": "BT-549 breast"}, "CCRF-CEM leukemia": {"tested_on": "CCRF-CEM leukemia"}, "COLO 205 colon": {"tested_on": "COLO 205 colon"}, "DLD-1 colon": {"tested_on": "DLD-1 colon"}, "DMS 114 small cell lung": {"tested_on": "DMS 114 small cell lung"}, "DMS 273 small cell lung": {"tested_on": "DMS 273 small cell lung"}, "EKVX NSCLC": {"tested_on": "EKVX NSCLC"}, "HCC-2998 colon": {"tested_on": "HCC-2998 colon"}, "HCT-116 colon": {"tested_on": "HCT-116 colon"}, "HCT-15 colon": {"tested_on": "HCT-15 colon"}, "HL-60(TB) leukemia": {"tested_on": "HL-60(TB) leukemia"}, "HOP-18 NSCLC": {"tested_on": "HOP-18 NSCLC"}, "HS 578T breast": {"tested_on": "HS 578T breast"}, "HT29 colon": {"tested_on": "HT29 colon"}, "IGROV1 ovarian": {"tested_on": "IGROV1 ovarian"}, "K-562 leukemia": {"tested_on": "K-562 leukemia"}, "KM12 colon": {"tested_on": "KM12 colon"}, "KM20L2 colon": {"tested_on": "KM20L2 colon"}, "M14 melanoma": {"tested_on": "M14 melanoma"}, "M19-MEL melanoma": {"tested_on": "M19-MEL melanoma"}, "MALME-3M melanoma": {"tested_on": "MALME-3M melanoma"}, "MCF7 breast": {"tested_on": "MCF7 breast"}, "MDA-MB-231 breast": {"tested_on": "MDA-MB-231 breast"}, "MDA-MB-435": {"tested_on": "MDA-MB-435"}, "MDA-N": {"tested_on": "MDA-N"}, "NCI-H23 lung": {"tested_on": "NCI-H23 lung"}, "NCI-H460 lung": {"tested_on": "NCI-H460 lung"}, "NCI-H522 lung": {"tested_on": "NCI-H522 lung"}, "OVCAR-5 ovarian": {"tested_on": "OVCAR-5 ovarian"}, "P388 leukemia": {"tested_on": "P388 leukemia"}, "P388/ADR leukemia": {"tested_on": "P388/ADR leukemia"}, "RPMI-8226 leukemia": {"tested_on": "RPMI-8226 leukemia"}, "RXF 393 renal": {"tested_on": "RXF 393 renal"}, "SF-268 CNS": {"tested_on": "SF-268 CNS"}, "SF-539 CNS": {"tested_on": "SF-539 CNS"}, "SK-MEL-28 melanoma": {"tested_on": "SK-MEL-28 melanoma"}, "SK-MEL-5 melanoma": {"tested_on": "SK-MEL-5 melanoma"}, "SN12K1 renal": {"tested_on": "SN12K1 renal"}, "SNB-19 CNS": {"tested_on": "SNB-19 CNS"}, "SNB-78 CNS": {"tested_on": "SNB-78 CNS"}, "SR leukemia": {"tested_on": "SR leukemia"}, "SW-620 colon": {"tested_on": "SW-620 colon"}, "T-47D breast": {"tested_on": "T-47D breast"}, "U251 CNS": {"tested_on": "U251 CNS"}, "UACC-257 melanoma": {"tested_on": "UACC-257 melanoma"}, "UACC-62 melanoma": {"tested_on": "UACC-62 melanoma"}, "XF 498 CNS": {"tested_on": "XF 498 CNS"}}, "note": "Where “and” joins values, the source holds several entries; their conditions need not be identical. Equal values may be shown once.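 1) Cells in 96-well plates. 2) Compound, 48 h, 5 concentrations. 3) Linear interpolation between surrounding doses. 4) Unreached endpoint = highest concentration. The concentration for 50% growth inhibition is given as GI50. TGI: concentration producing complete growth inhibition.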", "data": [{"smiles": "CN1N=C(N)c2cn(C3OC(COP(=O)(O)O)C(O)C3O)c3ncnc1c23", "note": "(configuration not stated)", "values": [{"measurement": "TGI", "setting": "786-0 renal", "value": "500 µM and 1650 µM and > 3510 µM"}, {"measurement": "GI50", "setting": "A498 renal", "value": "68.5 µM and 40.6 µM"}, {"measurement": "TGI", "setting": "A498 renal", "value": "391 µM and 1650 µM and 713 µM"}, {"measurement": "TGI", "setting": "A549 NSCLC", "value": "500 µM and 1650 µM and > 4780 µM"}, {"measurement": "GI50", "setting": "BT-549 breast", "value": "20.1 µM and 4.86 µM"}, {"measurement": "TGI", "setting": "BT-549 breast", "value": "135 µM and 626 µM and 114 µM"}, {"measurement": "TGI", "setting": "CCRF-CEM leukemia", "value": "500 µM and 1650 µM and > 5000 µM"}, {"measurement": "TGI", "setting": "COLO 205 colon", "value": "499 µM and > 1650 µM and 2170 µM"}, {"measurement": "TGI", "setting": "DLD-1 colon", "value": 617, "unit": "µM"}, {"measurement": "TGI", "setting": "DMS 114 small cell lung", "value": "> 4300", "unit": "µM"}, {"measurement": "TGI", "setting": "DMS 273 small cell lung", "value": "> 5000", "unit": "µM"}, {"measurement": "TGI", "setting": "EKVX NSCLC", "value": "500 µM and 1650 µM and 360 µM"}, {"measurement": "TGI", "setting": "HCC-2998 colon", "value": "500 µM and 1650 µM and > 4830 µM"}, {"measurement": "TGI", "setting": "HCT-116 colon", "value": "468 µM and 1650 µM and > 4540 µM"}, {"measurement": "TGI", "setting": "HCT-15 colon", "value": "500 µM and 1650 µM and 2630 µM"}, {"measurement": "TGI", "setting": "HL-60(TB) leukemia", "value": "114 µM and 123 µM and 116 µM"}, {"measurement": "TGI", "setting": "HOP-18 NSCLC", "value": 333, "unit": "µM"}, {"measurement": "TGI", "setting": "HS 578T breast", "value": "232 µM and 341 µM and 144 µM"}, {"measurement": "TGI", "setting": "HT29 colon", "value": "500 µM and 1650 µM and > 4630 µM"}, {"measurement": "TGI", "setting": "IGROV1 ovarian", "value": "500 µM and 1650 µM and 918 µM"}, {"measurement": "TGI", "setting": "K-562 leukemia", "value": "500 µM and > 1650 µM and > 5000 µM"}, {"measurement": "TGI", "setting": "KM12 colon", "value": "500 µM and > 1650 µM and > 5000 µM"}, {"measurement": "TGI", "setting": "KM20L2 colon", "value": "> 4370", "unit": "µM"}, {"measurement": "TGI", "setting": "M14 melanoma", "value": "500 µM and 1650 µM and 1670 µM"}, {"measurement": "TGI", "setting": "M19-MEL melanoma", "value": "> 4220", "unit": "µM"}, {"measurement": "TGI", "setting": "MALME-3M melanoma", "value": "305 µM and 1650 µM and 2090 µM"}, {"measurement": "TGI", "setting": "MCF7 breast", "value": "500 µM and 1650 µM and 3650 µM"}, {"measurement": "TGI", "setting": "MDA-MB-231 breast", "value": "163 µM and 259 µM"}, {"measurement": "TGI", "setting": "MDA-MB-435", "value": "363 µM and 671 µM"}, {"measurement": "GI50", "setting": "MDA-N", "value": 25.2, "unit": "µM"}, {"measurement": "TGI", "setting": "MDA-N", "value": "390 µM and > 1530 µM"}, {"measurement": "TGI", "setting": "NCI-H23 lung", "value": "500 µM and 1650 µM and 4180 µM"}, {"measurement": "TGI", "setting": "NCI-H460 lung", "value": "500 µM and > 1650 µM and 3460 µM"}, {"measurement": "TGI", "setting": "NCI-H522 lung", "value": "500 µM and > 1650 µM and > 5000 µM"}, {"measurement": "TGI", "setting": "OVCAR-5 ovarian", "value": "207 µM and 1650 µM and 475 µM"}, {"measurement": "TGI", "setting": "P388 leukemia", "value": 7.87, "unit": "µM"}, {"measurement": "TGI", "setting": "P388/ADR leukemia", "value": 2.94, "unit": "µM"}, {"measurement": "GI50", "setting": "RPMI-8226 leukemia", "value": 143, "unit": "µM"}, {"measurement": "TGI", "setting": "RPMI-8226 leukemia", "value": "500 µM and > 4750 µM"}, {"measurement": "GI50", "setting": "RXF 393 renal", "value": 41.9, "unit": "µM"}, {"measurement": "TGI", "setting": "RXF 393 renal", "value": "236 µM and 462 µM and 460 µM"}, {"measurement": "TGI", "setting": "SF-268 CNS", "value": "500 µM and 1650 µM and > 4850 µM"}, {"measurement": "TGI", "setting": "SF-539 CNS", "value": "162 µM and 807 µM and 208 µM"}, {"measurement": "GI50", "setting": "SK-MEL-28 melanoma", "value": "118 µM and 312 µM"}, {"measurement": "TGI", "setting": "SK-MEL-28 melanoma", "value": "500 µM and 1650 µM and 2420 µM"}, {"measurement": "TGI", "setting": "SK-MEL-5 melanoma", "value": "500 µM and > 1650 µM and > 4390 µM"}, {"measurement": "TGI", "setting": "SN12K1 renal", "value": "> 5000", "unit": "µM"}, {"measurement": "TGI", "setting": "SNB-19 CNS", "value": "455 µM and 1650 µM and 3170 µM"}, {"measurement": "TGI", "setting": "SNB-78 CNS", "value": 2910, "unit": "µM"}, {"measurement": "TGI", "setting": "SR leukemia", "value": "500 µM and > 1650 µM and > 5000 µM"}, {"measurement": "TGI", "setting": "SW-620 colon", "value": "500 µM and > 1650 µM and > 4130 µM"}, {"measurement": "TGI", "setting": "T-47D breast", "value": "327 µM and 1650 µM and 269 µM"}, {"measurement": "TGI", "setting": "U251 CNS", "value": "500 µM and 1650 µM and > 5000 µM"}, {"measurement": "TGI", "setting": "UACC-257 melanoma", "value": "500 µM and 1650 µM and 4660 µM"}, {"measurement": "GI50", "setting": "UACC-62 melanoma", "value": "22.6 µM and 96.1 µM"}, {"measurement": "TGI", "setting": "UACC-62 melanoma", "value": "290 µM and 1650 µM and 1880 µM"}, {"measurement": "TGI", "setting": "XF 498 CNS", "value": 44.9, "unit": "µM"}]}]}
